Source: patent US7405051B2, “Method of screening antiplatelet agents” (Astellas Pharma Inc., priority 2000, dated 2008)

What was measured:
[1] = test system: C6-15 cells transfected with pEF-BOS-dhfr (empty vector) and pEF-BOS-Gqi; assay: Intracellular Ca2+ concentration in control C6-15 cells transfected with empty vector and Gqi; assay type: cell-based, rat; details: empty vector plus Gqi control cells; 3x10^-5 to 1x10^-12 mol/L
Protocol: The C6-15 cells were seeded on a 96-well plate (96 well Black/clear bottom plate, collagen I coated; manufactured by BECTON DICKINSON) so that the concentration of cells became 2×10^4 cells/well. After culturing for 48 hours, a gene transfection was carried out by using a transfection reagent (LipofectAMINE 2000; manufactured by GIBCO BRL) and the combination of the plasmid pEF-BOS-dhfr-HORK3 (50 ng/well) and the plasmid pEF-BOS-Gqi (50 ng/well). As a control, a gene transfection was carried out by using the combination of the plasmid pEF-BOS-dhfr (i.e., an empty vector without the HORK3 gene) and the plasmid pEF-BOS-Gqi, instead of the combination of the plasmid pEF-BOS-dhfr-HORK3 and the plasmid pEF-BOS-Gqi. […]
A time course of the change in the intracellular Ca^2+ concentration was measured by using FLIPR (manufactured by Molecular Device). More particularly, after 10 seconds from the beginning of measurement, 2MeSADP or ADP was added to wells to a final concentration of 3×10^−5 mol/L to 1×10^−12 mol/L. After the addition, each fluorescence intensity was measured at an interval of 1 second for 50 seconds, and then at an interval of 6 seconds for 4 minutes. […]

[2] = biological target: T1, HORK3 protein (human ADP receptor P2TAC) (Homo sapiens, UniProt Q9H244); assay: Inhibition of forskolin-stimulated cAMP production in CHO cell expressing HORK3 protein; assay type: cell-based; details: CHO-dhfr(-) cells expressing HORK3; 3 μmol/L forskolin; 37° C. 30 minutes; read-out: EC50, responsiveness against the HORK3 protein (decrease of cAMP produced by forskolin)
From the text: It was found from Example 3 that the ADP receptor was a Gi-coupled receptor, and thus it is expected that the ADP receptor has an activity of suppressing the adenylate cyclase activity. […] In this connection, a dihydrofolate reductase (DHFR; an essential enzyme for de novo synthesis of nucleic acids) defective cell line [CHO-dhfr(−) line] was used in the present example. The plasmid pEF-BOS-dhfr-HORK3 was used as an expression plasmid to be used for expressing the HORK3 protein. The CHO-dhfr(−) line was seeded on each 10 cm-petri dish (1×10^6 cells/dish) by using an αMEM (with nucleic acids) medium. […] As a control, a gene transfection was carried out by using the plasmid pEF-BOS-dhfr (i.e., an empty vector without the HORK3 gene), instead of the plasmid pEF-BOS-dhfr-HORK3. After 24 hours from the gene transfection procedure, the transfected cells were taken and suspended in an αMEM (without nucleic acids) medium containing 100 nmol/L methotrexate (a competitive inhibitor of DHFR; manufactured by Wako Pure Chemical Industries). Each suspension was gradually diluted and reseeded on each 10 cm-petri dish. […] The amount of cAMP produced in each cell under each condition was measured by using the cAMP-EIA system in accordance with a protocol attached thereto.

[3] = test system: CHO cell transfected with the empty vector; assay: Forskolin-stimulated cAMP production in control CHO cell transfected with the empty vector; assay type: cell-based, Chinese hamster; details: 3 μmol/L forskolin
Protocol: The CHO-dhfr(−) line was seeded on each 10 cm-petri dish (1×10^6 cells/dish) by using an αMEM (with nucleic acids) medium. After culturing for 1 day, a gene transfection was carried out by using a transfection reagent (LipofectAMINE 2000; manufactured by GIBCO BRL) and the plasmid pEF-BOS-dhfr-HORK3 (8 μg). As a control, a gene transfection was carried out by using the plasmid pEF-BOS-dhfr (i.e., an empty vector without the HORK3 gene), instead of the plasmid pEF-BOS-dhfr-HORK3.
After 24 hours from the gene transfection procedure, the transfected cells were taken and suspended in an αMEM (without nucleic acids) medium containing 100 nmol/L methotrexate (a competitive inhibitor of DHFR; manufactured by Wako Pure Chemical Industries). Each suspension was gradually diluted and reseeded on each 10 cm-petri dish. Colonies which appeared after 2 weeks were individually taken, and used as a CHO cell expressing the HORK3 protein or a control CHO cell transfected with the empty vector in the following experiment.
The CHO cells expressing the HORK3 protein or the CHO cells transfected with the empty vector were seeded on a 24-well plate (1×10^5 cells/well). […]
The amount of cAMP produced in each cell under each condition was measured by using the cAMP-EIA system in accordance with a protocol attached thereto. […]

[4] = biological target: T1, HORK3 protein (human ADP receptor P2TAC); assay: Forskolin-stimulated cAMP production in C6-15 cell expressing HORK3 protein (cAMP HTRF); assay type: cell-based; details: C6-15 cells expressing HORK3; for EC50: 1 μmol/L forskolin, 37° C. 30 minutes, read-out: EC50, responsiveness against the HORK3 protein (decrease of cAMP produced by forskolin)
Protocol: The C6-15 cells expressing the HORK3 protein were seeded on a 96-well plate (1×10^4 cells/well). After culturing for 1 day, cells were treated with a DMEM medium containing 1 mmol/L 3-isobutyl-1-methylxanthine (manufactured by Sigma) and 0.1% BSA for 10 minutes, and then the combination of 1 μmol/L forskolin (manufactured by Wako Pure Chemical Industries) and 2MeSADP (a final concentration=1×10^−12 to 1×10^−7 mol/L), or the combination of 1 μmol/L forskolin and ADP (a final concentration=1×10^−10 to 1×10^−5 mol/L) was added dropwise. After incubating at 37° C. for 30 minutes, the culture supernatant was discarded, and then cells were dissolved in PBS containing 0.2% Triton X-100.
The amount of cAMP produced in each cell under each condition was measured by using a cAMP HTRF kit (manufactured by CIS bio international) in accordance with a protocol attached thereto. When the amount of cAMP produced by stimulating with 1 μmol/L forskolin alone was regarded as 100%, a concentration-dependent curve for the amount of cAMP in the presence of 2MeSADP or ADP was drawn.
Next, effects of compounds, which are known to suppress the platelet aggregation, on the suppression of the amount of cAMP produced by the forskolin stimulus in the C6-15 cell expressing the HORK3 protein by 2MeSADP were examined. […] After incubating at 37° C. for 30 minutes, the culture supernatant was discarded, and then cells were dissolved in PBS containing 0.2% Triton X-100. The amount of cAMP produced was measured by using the cAMP HTRF kit in accordance with a protocol attached thereto. When the amount of cAMP produced by stimulating with 1 μmol/L forskolin alone was regarded as 0%, and that by stimulating with the combination of 1 μmol/L forskolin and 10 nmol/L 2MeSADP was regarded as 100%, a concentration-dependent curve of each inhibitor was drawn.

[5] = biological target: T1, HORK3 protein (human ADP receptor P2TAC); assay: Increase in intracellular Ca2+ concentration in C6-15 cell co-expressing HORK3 protein and Gqi (FLIPR); assay type: cell-based; design: expressed in transfected cells; host or cells: C6-15 rat glioma cells, transient co-transfection of pEF-BOS-dhfr-HORK3 and pEF-BOS-Gqi; details: C6-15 cells transfected with pEF-BOS-dhfr-HORK3 and pEF-BOS-Gqi; peak values, Logistic regression
Protocol: When most purines such as ADP, 2MeSADP (2-methylthio-ADP), or the like are added to a cell, the increase in intracellular Ca^2+ via an endogenous cellular membrane receptor is observed. […] In the present example, the C6-15 cell was used to express the HORK3 protein.
Further, the plasmid pEF-BOS-dhfr-HORK3 obtained in Example 1 was used as an expression plasmid to be used for expressing the HORK3 protein. […]
A time course of the change in the intracellular Ca^2+ concentration was measured by using FLIPR (manufactured by Molecular Device). More particularly, after 10 seconds from the beginning of measurement, 2MeSADP or ADP was added to wells to a final concentration of 3×10^−5 mol/L to 1×10^−12 mol/L. After the addition, each fluorescence intensity was measured at an interval of 1 second for 50 seconds, and then at an interval of 6 seconds for 4 minutes.
The change of the intracellular Ca^2+ concentration by 2MeSADP or ADP in the cells to which the plasmid pEF-BOS-dhfr-HORK3 and the plasmid pEF-BOS-Gqi had been transfected was measured, each peak value in various concentrations of 2MeSADP or ADP was plotted, and then the dependency upon the concentration was analyzed by using a Logistic regression method.

[6] = biological target: T1, HORK3 protein (human ADP receptor P2TAC); assay: [3H]-2MeSADP binding assay on membrane fraction of C6-15 cell expressing HORK3 protein; details: 1 nmol/L [3H]-2MeSADP; 20 μg membrane fraction; room temperature 2 hours
From the text: The C6-15 cells expressing the HORK3 protein prepared in Example 5 were taken and washed, and then suspended in 20 mmol/L Tris-HCl (pH7.4) containing 5 mmol/L EDTA and a protease inhibitor cocktail set (Complete™; manufactured by Boeringer Mannheim). The whole was homogenized by using a POLYTRON, and ultracentrifuged. The pellet was suspended in 50 mmol/L Tris-HCl (pH7.4) containing 1 mmol/L EDTA, 100 mmol/L NaCl, 0.1% BSA, and Complete™ to obtain a membrane fraction.
After [^3H]-2MeSADP (manufactured by Moravek Biochemical) was added to 20 μg of the membrane fraction as a final concentration of 0.25 to 50 nmol/L, and was incubated in 250 μL of 50 mmol/L Tris-HCl (pH7.4) containing 1 mmol/L EDTA, 100 mmol/L NaCl, 0.1% BSA, and Complete™ at room temperature for 1 hour, the whole was collected on a glass filter by using a cell harvester. A microscintillator was added to the glass filter, and then a total amount of binding to the membrane fraction was measured by using a liquid scintillation counter. Further, an amount of non-specific binding to the membrane fraction was measured by adding 2MeSADP (a final concentration=50 μmol/L) in the above assay.
A microscintillator was added to the glass filter, and then radioactivity was measured by using a liquid scintillation counter. Further, radioactivity was measured by not adding the compound and by adding 2MeSADP (a final concentration=10 μmol/L) in the above assay, as a total amount of binding and an amount of non-specific binding, respectively.

[7] = test system: ADP-induced platelet aggregation of human PRP; assay: ADP-induced human platelet aggregation in platelet-rich plasma (aggregometer); assay type: cell-based; details: sodium citrate, ADP 20 to 200 μmol/L added as inducer, FIGS. 1 and 2
Protocol: Blood was collected from a healthy person (adult) by using 1/10 volume of sodium citrate, and then platelet-rich plasma(PRP) was prepared in accordance with a method of De Marco et al. (J. Clin. Invest., 77, 1272-1277, 1986). The PRP was used after preparing it to 3×10^8 cells/mL by using an automatic blood cell counter (MEK6258; Nihon Kohden Corporation). As an inducer of aggregation, ADP which is a product manufactured by MC Medical Corporation was used.
The platelet aggregation was measured by using an aggregometer (MCM Hema Tracer 212; MC Medical Corpration). […] Changes of a transmitted light were recorded for 10 minutes, and then an aggregation inhibition (%) was calculated from the maximum aggregation rate.
The data for 2MeSAMP (FIG. 1) are represented by the “average” of the experiment results obtained by using two volunteers. […] The inhibitory strength was dependent on the concentration of ADP as an inducer.

T1 sequence (Q9H244 whole entry): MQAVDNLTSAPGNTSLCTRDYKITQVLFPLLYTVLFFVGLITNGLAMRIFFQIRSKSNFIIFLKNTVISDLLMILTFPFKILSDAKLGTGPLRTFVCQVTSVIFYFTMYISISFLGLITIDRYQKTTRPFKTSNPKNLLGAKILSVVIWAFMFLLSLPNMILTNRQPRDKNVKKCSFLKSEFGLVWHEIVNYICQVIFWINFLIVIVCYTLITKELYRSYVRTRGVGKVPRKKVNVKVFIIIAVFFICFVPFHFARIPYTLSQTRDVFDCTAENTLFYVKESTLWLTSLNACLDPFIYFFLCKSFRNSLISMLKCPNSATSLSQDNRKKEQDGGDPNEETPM

**Q.** `Nc1ncnc2c1ncn2[C@@H]1O[C@H](COP(=O)(O)OP(=O)(O)O)[C@@H](O)[C@H]1O` [ADP, adenosine 5′-diphosphate] was tested. Which “change of the intracellular Ca2+ concentration” value [1] did it give?
**A.** not observed

**Q.** And the EC50 [2]?
**A.** 35 nM

**Q.** What about the “changes in the amount of cAMP produced by the forskolin stimulus” value [3] of the same compound?
**A.** no changes

**Q.** And the EC50 [4]?
**A.** 42 nM

**Q.** What about the EC50 [5] of the same compound?
**A.** 220 nM

**Q.** Which IC50 ([4]; 1 μmol/L forskolin and 10 nmol/L 2MeSADP, read-out: IC50, inhibitory effect on the suppression by 2MeSADP in the amount of cAMP produced by the forskolin stimulus) does the source give for `CSc1nc(N)c2ncn([C@@H]3O[C@H](COP(=O)(O)O)[C@@H](O)[C@H]3O)c2n1` [2MeSAMP, 2-methylthio-adenosine monophosphate] here?
**A.** 5000 nM

**Q.** What about the IC50 [6] of the same compound?
**A.** 4900 nM

**Q.** And the “inhibition of ADP-induced platelet aggregation” value [7]?
**A.** inhibited the ADP-induced platelet aggregation concentration-dependently

**Q.** Which results are given for `CSc1nc(N)c2ncn([C@@H]3O[C@H](COP(=O)(O)OP(=O)(O)O)[C@@H](O)[C@H]3O)c2n1` [2MeSADP, 2-methylthio-ADP]?
**A.** change of the intracellular Ca2+ concentration [1]: not observed; EC50 [2]: 0.07 nM; changes in the amount of cAMP produced by the forskolin stimulus [3]: no changes; EC50 [4]: 0.08 nM; EC50 [5]: 5.4 nM

**Q.** For `CSCCNc1nc(SCCC(F)(F)F)nc2c1ncn2[C@@H]1O[C@H](COP(=O)(O)OP(=O)(O)C(Cl)(Cl)P(=O)(O)O)[C@@H](O)[C@H]1O` [AR-C69931MX, N6-[2-methylthioethyl]-2-[3,3,3-trifluoropropylthio]-5′-ade nylic acid, monoanhydride with dichloromethylenebiphosphonic acid], which “inhibition of ADP-induced platelet aggregation” value [7] is on record?
**A.** inhibited the ADP-induced platelet aggregation concentration-dependently
